ChEMBL document CHEMBL5352435, “Recent two-year advances in anti-dengue small-molecule inhibitors” (Eur J Med Chem, 2022)
*1 amine or outer side, *2 acyl side, *3 side chain or, on linkers, in order; H or OH if unused. Where a SMILES comes first, the peptide text is derived from it. Bridges are numbered along the chain shown (N, C = ends). [ ]: non-standard residue; d: D form. The star is where a group is joined. hTyr(3S-OH,4S-OH,3'-OSO3H) = N[C@H](C(=O)O)[C@H](O)[C@@H](O)c1ccc(O)c(OS(=O)(=O)O)c1; Orn(4R-OH,5R-OH) = O=C([C@H](C[C@@H](O)[C@@H](O)N[*:3])N[*:1])[*:2]; Pro(3S-OH,4S-Me) = C[C@H]1CN[C@H](C(=O)O)[C@H]1O; X1 = CCCCCOc1ccc(-c2cc(-c3ccc(C(=O)*)cc3)no2)cc1; Gln(3R-OH) = NC(=O)C[C@@H](O)[C@H](N)C(=O)O; Hyp = O=C(O)[C@@H]1C[C@@H](O)CN1

Tests used:
[1] = tested on: dengue virus type 2; assay: Antiviral activity against DENV2 New Guinea C infected in golden hamster BHK-21 cells assessed as inhibition of plaque formation and measured after 22 hrs by crystal violet based plaque assay; assay type: functional, organism-based; conditions: BHK-21, 22 h
[2] = biological target: T1, Genome polyprotein (dengue virus type 2, UniProt P29990); assay: Inhibition of DENV2 NS2B/NS3 protease using Boc-Gly-Arg-Arg-MCA as substrate preincubated for 10 mins followed by substrate addition and measured after 60 mins by fluorescence microplate reader assay
T1 sequence (P29990 1346-1475 limits assumed): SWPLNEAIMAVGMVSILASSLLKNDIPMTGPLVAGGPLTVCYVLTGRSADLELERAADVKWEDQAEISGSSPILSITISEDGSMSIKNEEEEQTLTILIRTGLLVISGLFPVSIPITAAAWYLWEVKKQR
T1 sequence (P29990 1476-2093 limits assumed): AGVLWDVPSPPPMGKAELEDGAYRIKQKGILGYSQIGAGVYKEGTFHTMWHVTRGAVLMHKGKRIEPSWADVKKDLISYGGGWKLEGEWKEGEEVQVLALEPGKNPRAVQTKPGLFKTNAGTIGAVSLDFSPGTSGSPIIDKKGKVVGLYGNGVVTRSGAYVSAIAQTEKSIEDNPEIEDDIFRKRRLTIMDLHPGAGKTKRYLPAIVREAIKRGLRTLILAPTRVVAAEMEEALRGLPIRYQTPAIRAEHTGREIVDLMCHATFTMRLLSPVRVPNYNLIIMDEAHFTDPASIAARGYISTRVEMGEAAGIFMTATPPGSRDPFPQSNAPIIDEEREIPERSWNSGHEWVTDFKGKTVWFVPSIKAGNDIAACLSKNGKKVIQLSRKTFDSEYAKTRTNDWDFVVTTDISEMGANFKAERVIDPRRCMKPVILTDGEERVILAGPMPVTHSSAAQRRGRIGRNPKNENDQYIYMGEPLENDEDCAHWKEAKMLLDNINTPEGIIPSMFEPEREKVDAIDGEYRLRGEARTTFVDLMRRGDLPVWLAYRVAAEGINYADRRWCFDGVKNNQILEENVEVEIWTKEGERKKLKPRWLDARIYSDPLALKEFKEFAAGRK

[3] = tested on: dengue virus type 2; assay: Antiviral activity against DENV2 infected in African green monkey Vero cells assessed as inhibition of viral titer preincubated for 16 hrs followed by viral infection and measured after 36 hrs by focus-forming assay; assay type: functional, organism-based
[4] = Cytotoxicity against human Huh-7 cells assessed as reduction in cell viability incubated for 48 hrs by AlamarBlue assay; assay type: toxicity, cell-based
[5] = tested on: dengue virus type 2; assay: Antiviral activity against DENV2 New Guinea C expressing […] reporter plasmid infected in human Huh-7 cells assessed as inhibition of viral replication incubated for 48 hrs by nanoluciferase assay; assay type: functional, organism-based; conditions: Huh-7, 48 h
[6] = biological target: Nonstructural protein 3 (Zika virus, UniProt A0A024AXB9); assay: Inhibition of recombinant ZIKV NS2B-NS3 protease using Bz-Nle-K-K-R-AMC as substrate incubated for 1 hr by fluorescence-based microplate reader assay
Sequence of Nonstructural protein 3 (A0A024AXB9 whole entry): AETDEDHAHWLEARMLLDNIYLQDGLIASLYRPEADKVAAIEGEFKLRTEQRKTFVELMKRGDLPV

[7] = tested on: dengue virus type 4; assay: Antiviral activity against DENV4 infected in Huh-7 cells assessed as inhibition of virus induced cytopathic effect incubated for 72 hrs by Hoechst 33342 staining based immunofluorescence assay; assay type: functional, organism-based; conditions: Huh-7, 72 h
[8] = tested on: dengue virus type 2; assay: Antiviral activity against DENV2 assessed as inhibition of viral replication; assay type: functional, organism-based
[9] = tested on: dengue virus type 2; assay: Antiviral activity against DENV2 New Guinea C infected in monkey LLC-MK2 cells assessed as inhibition of plaque formation incubated for 72 hrs by plaque titration assay; assay type: functional, organism-based; conditions: LLC-MK2, 72 h
[10] = tested on: dengue virus type 2; assay: Antiviral activity against DENV2 infected in mouse assessed as survival rate at 30 mg/kg,po; assay type: functional
[11] = tested on: dengue virus type 1; assay: Antiviral activity against DENV1 assessed as inhibition of viral replication; assay type: functional, organism-based
[12] = tested on: dengue virus type 3; assay: Antiviral activity against DENV3 assessed as inhibition of viral replication; assay type: functional, organism-based
[13] = tested on: dengue virus type 4; assay: Antiviral activity against DENV4 assessed as inhibition of viral replication; assay type: functional, organism-based
[14] = tested on: dengue virus type 2; assay: Antiviral activity against DENV2 New Guinea C infected in Huh-7 cells assessed as inhibition of virus induced cytopathic effect incubated for 3 to 7 days by Neutral red assay; assay type: functional, organism-based
[15] = tested on: dengue virus type 3; assay: Antiviral activity against DENV3 H87 assessed as reduction in viral RNA copy number preincubated for 1 hrs followed by infection in Vero cells and measured after 4 days by qRT-PCR analysis; assay type: functional, organism-based
[16] = tested on: dengue virus type 2; assay: Antiviral activity against DENV2 New Guinea C infected in golden hamster BHK-21 cells assessed as inhibition of plaque formation incubated for 4 days by crystal violet staining based microscopy; assay type: functional, organism-based; conditions: BHK-21, 96 h
[17] = Cytotoxicity against human Huh-7 cells assessed as reduction in cell viability incubated for 24 hrs by PrestoBlue assay; assay type: toxicity, cell-based
[18] = tested on: dengue virus type 2; assay: Antiviral activity against DENV2 16681 infected in human Huh-7 cells assessed as inhibition of viral titer incubated for 24 hrs by focus-forming assay; assay type: functional, organism-based; conditions: Dengue virus, 16681, Huh-7, 24 h
[19] = tested on: dengue virus type 2; assay: Antiviral activity against DENV2 Thailand/16681/1984 infected in golden hamster BHK-21 cells assessed as inhibition of virus induced cytopathic effect incubated for 4 to 5 days by microscopy; assay type: functional, organism-based
[20] = biological target: T1, Genome polyprotein; assay: Inhibition of DENV2 NS2B (48 to 100 residues)/NS3 (14 to 185 residues) protease expressed in Escherichia coli BL21 (DE3) using Bz-Nle-Lys-Arg-Arg-AMC as substrate preincubated for 30 mins followed by substrate addition by fluorescence assay

`COc1cc(/C=C(\C#N)C(=O)c2ccc(O)c(O)c2)cc(I)c1O` showed an EC50 [1] of 3 µM.

For `O=C(CCCCCCCCc1ccc(O)cc1)c1c(O)cc(O)cc1O`, the IC50 [2] was 7.55 µM.

For `Cc1ccc(O)c(NC(=O)CCc2ccccc2)c1`, the IC50 [3] was 1 µM.

For `Fc1cc2cn[nH]c2cc1Nc1ccnc2ccc(Br)cc12`, the CC50 at 48 h [4] was > 10 µM and the EC50 [5] was 2.3 µM.

`O=[N+]([O-])c1ccc(Nc2ccc3[nH]ncc3c2)nc1N1CCNCC1` showed an IC50 [6] of 1.5 µM and an IC50 [7] of 7.1 µM.

Work on `CC(C)(C)[Si](C)(C)Oc1ccc([C@H]2N(Nc3ccc([N+](=O)[O-])cc3)C(=O)[C@@H]3Cc4ccccc4N32)cc1` yielded an EC50 [8] of 4.79 µM.

With `C#COc1ccc(-c2cc(=O)c3c(O)cc(O)cc3o2)cc1` the EC50 [9] was 7.81 µM.

In the case of `COc1cc(NC(C(=O)N2CCc3ccc(OC(F)(F)F)cc32)c2ccc(Cl)cc2)cc(OCCCC(=O)O)c1` (stereo not given), the Activity [10] is reported as 90%, the EC50 [11] is reported as ≤ 0.001 µM and the EC50 [8] is reported as ≤ 0.004 µM. The EC50 [12] was ≤ 0.001 µM and the EC50 [13] was ≤ 0.006 µM.

`CC1(C)Cc2sc(NC(=O)Cc3ccc(S(N)(=O)=O)cc3)c(C#N)c2CN1CC1CCCCC1` gave an EC50 [14] of 0.023 µM.

With `O=C1NCc2ccc(Nc3ccnc4ccc(Br)cc34)cc21` the CC50 at 48 h [4] was > 10 µM and the EC50 [5] was 3.6 µM.

`O=c1cc(-c2ccccc2)oc2cc(O)c(O)c(O)c12` [BAICALEIN] showed an IC50 [15] of 17.2 µM.

In the case of `Cc1cc2c(F)c(Oc3ncnn4cc(OC[C@@H](C)O)c(C)c34)ccc2[nH]1` [BRIVANIB], the IC50 [16] is reported as 2.5 µM.

Work on `COc1ccc2[nH]cc(CCNC(C)=O)c2c1` [MELATONIN] yielded a CC50 at 24 h [17] of 3170 µM and an IC50 [18] of 135 µM.

Work on `CCCCCOc1ccc(-c2cc(-c3ccc(C(=O)N[C@H]4C[C@@H](O)[C@@H](O)NC(=O)[C@@H]5[C@@H](O)[C@@H](C)CN5C(=O)[C@H]([C@H](O)CC(N)=O)NC(=O)[C@H]([C@H](O)[C@@H](O)c5ccc(O)c(OS(=O)(=O)O)c5)NC(=O)[C@@H]5C[C@@H](O)CN5C(=O)[C@H]([C@@H](C)O)NC4=O)cc3)no2)cc1` [MICAFUNGIN] (X1-[Orn(4R-OH,5R-OH)]T[Hyp][hTyr(3S-OH,4S-OH,3'-OSO3H)][Gln(3R-OH)][Pro(3S-OH,4S-Me)]; lactam 1-C) yielded an IC50 [19] of 10.2 µM.

`O=c1c(O)c(-c2cc(O)c(O)c(O)c2)oc2cc(O)cc(O)c12` [MYRICETIN] showed an IC50 [20] of 8.46 µM.

In the case of `COc1cc([C@H]2Oc3cc([C@H]4Oc5cc(O)cc(O)c5C(=O)[C@@H]4O)ccc3O[C@@H]2CO)ccc1O` [SILYBIN A], the IC50 [15] is reported as 18.5 µM.

`Cc1ccc(C(=O)Nc2ccc(S(=O)(=O)O)c3cc(S(=O)(=O)O)cc(S(=O)(=O)O)c23)cc1NC(=O)c1cccc(NC(=O)Nc2cccc(C(=O)Nc3cc(C(=O)Nc4ccc(S(=O)(=O)O)c5cc(S(=O)(=O)O)cc(S(=O)(=O)O)c45)ccc3C)c2)c1` [SURAMIN HEXASODIUM] showed an EC50 [1] of 0.35 µM.
